Experimental data taken from patent US8748445B2, “Methods for treating glioma” (The UAB Research Foundation, priority 2004, dated 2014).

What was measured:
[1] = tested on: cultured glioma cells; assay: glutathione levels in cultured glioma cells (monochlorobimane assay); assay type: cell-based, human
Protocol: (§1) The control group and treatment group animals were those described in FIG. 7A above. For these experiments, four mice (two control and two treatment) were sacrificed at 44 days after tumor induction, and brains were rapidly frozen and cryosectioned to […], thawed on ice, and then incubated with 100 μM monochlorobimane for 10 min. Fluorescence intensities were examined using a quantitative fluorescence imaging system comparing side-by-side slices from control group and treatment group animals. In these experiments, 10 slices were examined per animal. […] After treatment with 8 mg sulfasalazine 2 times per day, glutathione levels decreased approximately 30% (from 100+/−5.6 to 71.7+/−7.5 fluorescence units; p 0.01; t test) in tumors as compared with control animals (receiving saline alone). In parallel studies, the same assay was used on cultured glioma cells to validate these readouts. A 30% decrease in glutathione levels correlates with the glutathione depletion achieved with 70 μM sulfasalazine administered for 24 h to cultured cells; the maximal decrease achieved with 250 μM sulfasalazine in cultured U87-MG cells was 68% (data not shown).

[2] = tested on: cortical astrocytes; assay: intracellular glutathione in cortical astrocytes; assay type: cell-based; details: sulfasalazine 50-500 μM; compared to glioma cells (FIG. 2E)
Protocol: To determine if limiting cystine uptake via system Xc reduces the total intracellular glutathione content (GSH and glutathione disulfide), intracellular glutathione concentrations were determined in the presence and absence of sulfasalazine.

[3] = tested on: D54-MG glioma cells; assay: glutathione levels in tumor sections (monochlorobimane fluorescence); assay type: in vivo, CB-17 scid mice; details: 8 mg 2 times per day, 44 days after tumor induction
Protocol: as §1

[4] = tested on: U87-MG; assay: intracranial U87-MG luciferase xenograft, bioluminescence imaging; assay type: in vivo, CB-17 nude mice; details: 8 mg twice daily for 3 weeks, then 1 dose per day (FIG. 7B)
Protocol: These U87-MG cells were similarly implanted intracranially as described above, but this time into CB-17 nude mice. After 7 days, animals were randomized into […]. The control group received an intraperitoneal injection of 1 ml dose of saline twice daily. The two test groups received an 8 mg dose of sulfasalazine (in 1 ml saline) twice daily for 3 weeks, followed by 1 dose per day of 8 mg sulfasalazine thereafter. Animals were imaged for tumor size, typically once per week, using a bioluminescence imaging system (IVIS system; Xenogen). Light emission from the tumor regions (in relative photons/second) were quantified using Living Image, version 2.20.1, software provided by Xenogen and plotted as a function of time.

[5] = tested on: glioma cells; assay: cell cycle: total DNA content by flow cytometry (propidium iodide); assay type: cell-based, human; details: 0.5 mM (FIG. 4D)
Protocol: To test whether inhibition of cystine uptake affects a specific stage of the cell cycle, changes in total DNA content were measured using flow cytometry following treatment with 0.5 mM (S)-4-CPG and 0.5 mM sulfasalazine. Cells were fixed with para-formaldehyde and stained with the nuclear marker propidium iodide after incubation with drugs.

[6] = tested on: caspase-3; assay: activated caspase-3 by Western blot analysis; assay type: cell-based, human; details: 0.5 mM; D-54MG cells (FIG. 5C)
Protocol: Because an accumulation of ROS can lead to apoptotic cell death, the ability of system Xc inhibitors to induce apoptosis in glioma cells was examined. […] Often apoptosis is dependent on caspase activities, so it was determined whether the system Xc inhibitors induce activated caspase-3, which is the convergent enzyme in the caspase-dependent signaling cascade. […] With 1 mM sulfasalazine, 90% of cells died over the 5 d incubation (FIG. 5E).

O=C(O)c1cc(/N=N/c2ccc(S(=O)(=O)Nc3ccccn3)cc2)ccc1O [sulfasalazine]
decrease in glutathione levels in cultured cells ([1]; 70 μM for 24 h): 30% | maximal decrease in glutathione levels ([1]; 250 μM, cultured U87-MG cells, data not shown): 68% | intracellular glutathione concentration in astrocytes [2]: a smaller effect | glutathione levels in tumors ([3]; control 100+/−5.6): 71.7+/−7.5 fluorescence units | decrease of glutathione levels in tumors ([3]; versus saline control): approximately 30% | tumor growth by bioluminescence imaging [4]: reduce tumor growth significantly | cell cycle distribution (total DNA content) [5]: a reduction of cells in G2 phase and an increase in cells in S phase | activated form of caspase-3 [6]: increased the activated form of caspase-3
